# Tests used:
# [1] = system: over 400 different protein kinases and 20 phosphatases; assay: Kinase and phosphatase inhibition, three in vitro assay systems; type: biochemical
# Experimental: (§1) Initial assays were performed with PC3 and PC3-M cells (PC3 cell data not shown). However, as these studies yielded similar findings, subsequent screening assays utilized only PC3-M cells. In designing chemical synthetic routes, priority was given to efficacy and toxicity parameters. Additional design features were also included in our chemical […]
# (§2) toxicity parameters. These additional design features included removal of fragments that mediated genistein binding to the estrogen receptor (ER), as determined by ER-genistein 3D x-ray crystal structures (Protein Data Base IDs:1X7R and 1X7J, for crystal structures of ERα and ERβ with bound genistein, respectively). These features also included removal of chemical fragments that are considered to increase susceptibility to rapid metabolism, especially that by the cytochrome P450 (CYP) pathway. The final feature involved incorporation of chemical characteristics previously shown to be associated with effective drugs and which together generally impart more favorable pharmacologic properties, including those described by Lipinski […]
# (§3) Supplementary Note 2. […] Three […]
# (§4) different assays systems were employed.
# (§5) Kinase assay system #1. The KINOMEscan™ assay (Ambit Biosciences). This assay evaluates 442 kinases, including 400 distinct parental kinases plus mutants known to alter activity or responsiveness. […]
# [2] = system: 442 kinases; assay: KINOMEscan assay; type: binding; details: 10 µM; negatives include MKK4, p38 MAPK, RAF1
# Experimental: as §1, §2, §3, §4, §5
# [3] = target: T1, HSP90β (Homo sapiens, UniProt P08238); assay: Biophysical binding assays and DARTS, isolated HSP90β; details: ITC, thermal shift, biolayer interferometry, dynamic light scattering, DARTS
# T1 construct: made in house; host or cells: Rosetta BL-21 E. coli
# Experimental: Fluorescent thermal shift, isothermal titration calorimetry, and biolayer interferometry assays[46] were all performed as described by us using MEK4EE (37-399, S257E, T261E) cloned into pMCSG7 and KRX Competent E. coli cells (Promega Inc.) and above denoted full-length HSP90B and CDC37 vectors and Rosetta BL-21 and BL-21 DE-3 competent E. coli cells, respectively. DARTS assays were conducted as described, using equimolar amounts of CDC37 and HSP90β, thermolysin digestion, and silver stain visualization (ProteoSilver Silver Stain Kit, Sigma-Aldrich).
# Supplementary Figure 14. […] Studies used purified […]
# recombinant HSP90β or CDC37. Fluorescent thermal shift 5, isothermal titration calorimetry 6, […]
# evidence of KBU2046 binding to either HSP90β or CDC37 (data not shown). For DARTS assay, HSP90β or CDC37 were individually pre-incubated with KBU2046, thermolysin added, and reaction products were separated by SDS PAGE and visualized by silver stain (depicted above).
# NTco – no thermolysin control. However, when the DARTS assay was conducted with both HSP90β and CDC37 present, KBU2046 protected both proteins from degradation in a concentration-dependent manner (see manuscript Fig 5A).
# (also on this page, place not known: HSP90 Ntco 0 0.001 0.01 0.1 1.0 10 µM KBU2046, thermolysin NTco thermolysin CDC37)
# (1 picture or pasted object on this page, not shown here)
# [4] = Systemic off-target effects, histologic examination after 35 days; type: in vivo
# Experimental: Histologic examination of tissue: Organs of athymic male mice stained with hematoxylin and eosin, trichrome, or giemsa were microscopically examined by a mouse pathologist (L.L.) in a blinded fashion, and toxicity scored using an established semi-quantitative histological scoring system[38] (Supplementary Fig. 8). The following clinical chemistry parameters were measured in blood of CD1 male and female mice by Charles River Research Animal Diagnostic Services: cholesterol, triglycerides, alanine aminotransferase, aspartate aminotransferase, total bilirubin, glucose, phosphorus, total protein, calcium, blood urea nitrogen (BUN), creatinine, albumin, Na, K, Cl, white blood cells (with differential), red blood cells, hemoglobin, and platelets.
# (§6) Supplementary Figure 7. KBU2046 treatment is not associated with systemic off-target effects. For histologic examination of tissue, cohorts of N=5 male 6-8 week old Balb/c athymic […]
# KBU2046 as described in manuscript Figure 2a. […] Organs were examined for damage using a semi-quantitative histological scoring system, as described 4. […]
# [5] = Single intravenous dose organ function study; type: in vivo; details: CD1 mice, single iv 15, 75 or 125 mg/kg, day 8 and 14
# Excerpt: as §6
# KBU2046 as described in manuscript Figure 2a. After 35 days of treatment, the following organs were harvested at necropsy, and stained with H&E (alternative staining methods as indicated): heart, lungs, esophagus, stomach, colon, small intestine, liver (Trichrome staining), kidneys (Trichrome staining), adrenals, bladder, prostate, spleen, pancreas, brain, testes, and bone marrow and peripheral blood (Giemsa staining). Organs were examined for damage using a semi-quantitative histological scoring system, as described 4. […]
# except in the livers of both control and treatment mice. Changes in the liver observed in control mice were not increased by KBU2046 treatment. […]
# gm/mouse, this translated to 5-7 week old females and 4.5-5.5 week old males. […] On day 8 and 14, all critical organs were weighed, and the following parameters measured in blood: cholesterol, triglycerides, alanine aminotransferase (ALT), aspartate aminotransferase (AST), total bilirubin, glucose, phosphorus, total protein, calcium, blood urea nitrogen (BUN), creatinine, albumin, Na, K, Cl, white blood cells (with differential), red blood cells, hemoglobin, […]
# [6] = system: RAF1; assay: RAF1 protein expression, western blot; type: cell-based, human; details: in cells
# Experimental: Fig. 6 KBU2046-mediated changes in the signature of client proteins bound to the HSP90β/CDC37 heterocomplex mediate effects upon cell motility. a LUMIER assay. HEK293T cells were transfected with 1 of 420 different protein kinases, treated with 10 µM KBU2046 (N = 5 replicates) or vehicle control (N = 5) for 3 days, and LUMIER assays performed. The N = 17 kinases that gave significant findings (Student’s t-test <0.05) in the same direction in each of two separate experiments are depicted. […] All experiments were repeated at separate times at least once, with similar results
# Western blots were performed as described by us[32]. All western blots were repeated at least once. Uncropped scans of the most important blots are depicted in Supplementary Fig. 19.
# T1 sequence (P08238 whole entry): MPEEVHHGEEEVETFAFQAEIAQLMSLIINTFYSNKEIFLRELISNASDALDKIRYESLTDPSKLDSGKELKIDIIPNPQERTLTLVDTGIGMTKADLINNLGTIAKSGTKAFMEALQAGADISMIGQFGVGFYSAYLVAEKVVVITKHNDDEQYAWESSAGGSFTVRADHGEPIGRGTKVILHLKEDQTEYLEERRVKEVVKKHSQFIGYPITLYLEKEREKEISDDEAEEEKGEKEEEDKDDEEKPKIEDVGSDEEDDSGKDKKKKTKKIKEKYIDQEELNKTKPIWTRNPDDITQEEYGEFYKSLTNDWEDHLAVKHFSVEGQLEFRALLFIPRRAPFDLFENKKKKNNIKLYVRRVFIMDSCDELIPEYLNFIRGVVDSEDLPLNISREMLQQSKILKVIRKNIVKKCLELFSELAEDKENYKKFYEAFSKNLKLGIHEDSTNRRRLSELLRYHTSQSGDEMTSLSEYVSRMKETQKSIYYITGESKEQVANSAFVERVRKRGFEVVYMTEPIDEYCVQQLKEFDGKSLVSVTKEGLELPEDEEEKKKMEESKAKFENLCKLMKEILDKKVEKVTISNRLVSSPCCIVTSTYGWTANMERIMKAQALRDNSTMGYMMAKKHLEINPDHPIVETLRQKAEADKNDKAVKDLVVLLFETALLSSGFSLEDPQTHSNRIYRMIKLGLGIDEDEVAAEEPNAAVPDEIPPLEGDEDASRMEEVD
smiles,measurement,setting,value
"O=C1c2ccccc2OCC1c1ccc(F)cc1 (racemic) [KBU2046, (±)-3(4-fluorophenyl)chroman-4-one]",inhibition of protein kinases and phosphatases,[1],failure to inhibit
same,inhibition of kinase binding to immobilized substrate,[2],completely negative
same,binding to HSP90β,[3],no evidence of KBU2046 binding
same,"organ damage, histological scoring","[4]; athymic mice, KBU2046 in chow, 35 days",No organ damage was observed
same,toxicity after oral dosing,"[4]; oral doses up to 150 mg/kg, up to 35 days",no observed toxicity
same,"organ weights, clinical chemistry and blood parameters",[5],No abnormal alterations
same,RAF1 protein expression levels,[6],did not alter RAF1 protein expression levels

# — PMC6014988, “Precision therapeutic targeting of human cancer cell motility” (Nature Communications, 2018)
